Experimental data from patent publication US10787419B2, “Cannabinoid receptor mediating iminopyrazole compounds” (The United States of America, as represented by the …, priority 2012, dated 2020).

Tests used:
[1] = tested on: DIO mice; test: mice with diet-induced obesity (DIO) treated orally for 14 days; assay type: in vivo
Experimental: Glucose tolerance and insulin sensitivity were determined on the last 2 days of treatment, using i.p. glucose tolerance and insulin sensitivity tests.

[2] = tested on: ZDF rats; test: Zucker diabetic fatty (ZDF) rat model of type 2 diabetes; assay type: in vivo; details: 10 mg/kg/day oral gavage, 7 days
[3] = target: iNOS (Mus musculus (Mouse), UniProt P29477); test: iNOS activity in lung homogenates from LPS-treated mouse; assay type: biochemical
Experimental: Cellular iNOS activity was determined after replacing growth medium with reaction mixtures containing appropriate ligands (100 nM). ^& Mice were treated in vivo with vehicle or LPS (25 mg/kg, ip) and sacrificed 6 h later. Crude homogenate prepared from lung were incubated with the indicated ligands and iNOS activity was determined using a radioactivity-based assay.

[4] = in vivo metabolism, metabolite generation in plasma by LC-MS/MS; details: 1 h after oral 10 mg/kg in mice
[5] = tested on: CCl4-induced liver fibrosis; test: CCl4-induced liver fibrosis model in mice; assay type: in vivo
Experimental: CCL-induced liver fibrosis was generated by intraperitoneal injection of CCL4 (1 ml/kg, diluted 1:10 corn oil), twice weekly for 8 weeks. […] Data represent mean±SEM from 7-8 mice per group. *P<0.05 relative to control. ^#indicates significant treatment effect (P<0.05) relative to CCl4-treated vehicle group.
Fibrosis results from excessive extracellular matrix deposition by myofibroblasts accompanying chronic inflammation and wound healing, and is a key pathogenic process in many organs, including kidneys, lung, and liver.

[6] = target: CB1 (Mus musculus (Mouse), UniProt P47746); test: radioligand displacement assay in mouse brain membranes (Ki CB1); assay type: binding
CB1, sequence (P47746 whole entry): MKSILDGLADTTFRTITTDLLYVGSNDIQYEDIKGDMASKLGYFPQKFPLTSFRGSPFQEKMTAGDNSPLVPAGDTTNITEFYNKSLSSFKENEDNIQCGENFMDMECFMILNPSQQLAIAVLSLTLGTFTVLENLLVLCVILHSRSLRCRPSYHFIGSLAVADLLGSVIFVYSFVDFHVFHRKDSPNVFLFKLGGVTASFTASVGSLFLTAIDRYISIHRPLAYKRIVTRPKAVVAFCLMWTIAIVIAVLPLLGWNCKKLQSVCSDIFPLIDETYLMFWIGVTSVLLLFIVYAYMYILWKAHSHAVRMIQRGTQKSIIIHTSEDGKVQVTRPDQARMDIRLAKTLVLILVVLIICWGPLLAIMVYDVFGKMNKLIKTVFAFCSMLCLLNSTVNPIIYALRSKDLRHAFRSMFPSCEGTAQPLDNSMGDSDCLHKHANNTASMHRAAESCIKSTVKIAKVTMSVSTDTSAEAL

[7] = tested on: recombinant human AMPK; test: recombinant AMPK activity assay; assay type: biochemical; details: rimonabant at 1 μM
Source text: Guanides and biguanides, such as metformin, are effective as antidiabetic agents linked to their AMPK activating properties (Hardie et al., Chem Biol. 2012, […]; 1222-1236). Guanidine-containing analogs in certain embodiments were screened for activation of recombinant human AMPK, using an assay kit (Cyclex, Nagona, Japan), as illustrated in FIG. 8.
Activators of AMP-activated protein kinase (AMPK), such as guanidines of biguanides such as metformin are useful for the treatment of diabetes owing to their AMPK activating property (Hardie, et al., Chem & Biol 2012, 19(10); 1222-1236). Guanidine analogues of certain embodiments were screened for AMPK activation by using a recombinant AMPK activity assay.

[8] = tissue levels in brain and plasma after administration to mice; details: 1 hour after 10 mg/kg to mice; indicating good oral bioavailability
[9] = DIO mice, 10 mg/kg/day oral, 14 days
[10] = 10 mg/kg/day orally for 4 weeks

## CC(=N)N/C(=N\S(=O)(=O)c1ccc(Cl)cc1)N1CC(c2ccccc2)C(c2ccc(Cl)cc2)=N1 (racemic) [Compound 2, 3-(4-chlorophenyl)-N′-((4-chlorophenyl)sulfonyl)-N-(1-iminoethyl)-4-phenyl-4,5-dihydro-1H-pyrazole-1-carboximidamine]
[1]; [9]
  hepatic TG: reduced
  hyperinsulinemia: abrogated
  hyperleptinemia: reduced
[1]; DIO mice, 10 mg/kg/day oral, during the first week
  food intake reduction: ~20%
[1]; DIO mice, 10 mg/kg/day oral, i.p. glucose tolerance and insulin sensitivity tests, last 2 days
  glucose intolerance and insulin resistance: nearly completely normalized
[1]; mouse, in vivo
  In vivo Comments: anti-diabetic anti-obesity
[2]
  blood glucose: prevented the increase in blood glucose
  insulin and c-peptide levels: prevented
[3]
  inhibition at 1 µM: ~48%
[4]
  in vivo metabolism: underwent in vivo metabolism to liberate the amidine moiety and a metabolite
[5]; [10]
  CCl4-induced collagen deposition / liver fibrosis by Sirius red and Masson's trichrome staining: more effective than rimonabant
  CCl4-induced elevation of iNOS immunostaining: attenuated
  α-SMA, Procollagen-1 and Fibronectin-1 mRNA: more effective than rimonabant

## N=C(N/C(=N\S(=O)(=O)c1ccc(Cl)cc1)N1CC(c2ccccc2)C(c2ccc(Cl)cc2)=N1)c1ccccc1 (stereo not shown) [Compound 8]
[6]; Table 1
  Ki: 26 nM
[6]; Table 2
  Ki: 26 nM

## Cc1c(C(=O)NN2CCCCC2)nn(-c2ccc(Cl)cc2Cl)c1-c1ccc(Cl)cc1 [rimonabant, reference compound]
[7]
  AMPK activity: no effect
[5]; [10]
  CCl4-induced elevation of iNOS immunostaining: not by rimonabant

## N=C(N/C(=N\S(=O)(=O)c1ccc(Cl)cc1)N1CC(c2ccccc2)C(c2ccc(Cl)cc2)=N1)C1CC1 (stereo not shown) [Compound 4]
[6]; Table 1
  Ki: 13 nM
[6]; Table 2
  Ki: 13 nM

## CC(=N)N/C(=N\S(=O)(=O)c1ccc(Cl)cc1)N1C[C@H](c2ccccc2)C(c2ccc(Cl)cc2)=N1 [Compound 2E1]
[8]
  plasma levels after oral or i.p. administration: comparable
[5]; [10]
  CCl4-induced collagen deposition / liver fibrosis by Sirius red and Masson's trichrome staining: more effective than rimonabant
  CCl4-induced elevation of iNOS immunostaining: dramatically attenuated
[5]; compared with rimonabant
  anti-fibrotic efficacy in liver fibrosis: higher anti-fibrotic efficacy than rimonabant

## NN/C(=N\S(=O)(=O)c1ccc(Cl)cc1)N1CC(c2ccccc2)C(c2ccc(Cl)cc2)=N1 (stereo not shown) [Compound 73]
[6]; Table 1
  Ki: 33 nM
[6]; Table 2
  Ki: 33 nM

## N=C(N/C(=N\S(=O)(=O)c1ccc(Cl)cc1)N1CC(c2ccccc2)C(c2ccc(Cl)cc2)=N1)c1ccncc1 (stereo not shown) [Compound 12]
[6]; Table 1
  Ki: 34 nM
[6]; Table 2
  Ki: 34 nM

## CNC(N)=NC(=NS(=O)(=O)c1ccc(Cl)cc1)N1CC(c2ccccc2)C(c2ccc(Cl)cc2)=N1 (stereo not shown) [Compound 45]
[6]; Table 2
  Ki: 327 nM

## NC=NC(=NS(=O)(=O)c1ccc(Cl)cc1)N1CC(c2ccccc2)C(c2ccc(Cl)cc2)=N1 (stereo not shown) [Compound 1]
[6]; Table 2
  Ki: 392 nM

## N=C(N/C(=N\S(=O)(=O)c1ccc(Cl)cc1)N1CC(c2ccccc2)C(c2ccc(Cl)cc2)=N1)N1CCCC1 (stereo not shown) [Compound 55]
[6]; Table 1
  Ki: 241 nM
[6]; Table 2
  Ki: 241 nM
